Experimental data from patent US4429126A, “Sodium salt of 4-oxo-10-(2,3-dimethylpentanamido)-4H-pyrimido[1,2-c]quinozoline-3-carbo xylic acid” (Fujisawa Pharmaceutical Co., Ltd., priority 1982, dated 1984).

System: PCA (Passive Cutaneous Anaphylaxis) reaction
Test: TEST I: Inhibitory effect on PCA (Passive Cutaneous Anaphylaxis) reaction (64 fold diluted antiserum)
Assay type: in vivo, male SD (Sprague-Dawley) strain rats
Conditions: for Inhibitory effect (%), Intravenous administration (10 mg/kg) / inhibition in vivo at 10 mg/kg: 5 minutes before antigen challenge, intravenous; for Inhibitory effect (%), Oral administration (100 mg/kg): 60 minutes before antigen challenge; for inhibition in vivo at 10 mg/kg: Rattus norvegicus, read-out: Inhibitory effect (%), Intravenous administration (10 mg/kg)
Procedure: A solution of egg albumin (2 mg) in B. pertussis-diphtheria-tetanus mixed vaccine (1 ml) was mixed with Freund incomplete adjuvant (1 ml) to give an emulsion. The emulsion was given subcutaneously in a single dose of 1 ml divided equally (0.25 ml) to the four foot pads of male SD (Sprague-Dawley) strain rats aged 8 weeks, each weighing about 300 g.
10 days after the immunization, blood samples were collected from femoral artery of the rats and allowed to stand under ice-cooling for 5 hours. The separated supernatant was centrifuged at 4° C. (10,000 r.p.m.×1 hour). The antisera thus obtained were stored at -80° C. prior to use.
Male SD-strain rats aged 8 weeks, weighing 290 to 330 g, were used for PCA reaction with the homologus reaginic antiserum as prepared above. Each 0.1 ml of 64 fold diluted antiserum were injected intradermally at separate sites on the back of rats clipped free of hair, and 48 hours later, 1 ml of aqueous solution containing each 5 mg of the egg albumin and Evans blue was injected intravenously to evoke PCA reaction. Test compound was given to the animals orally 60 minutes or intravenously 5 minutes before the challenge with antigen. Control group received vehicle. Each dose group consisted of 5 animals. One hour after the challenge with antigen, the animals were sacrificed and then skinned. Dye spots caused with antiserum were investigated for their size on the reversed side of the skin, respectively. The results were expressed by percent inhibition values calculated from averaged values of the longest and shortest diameters for each spot in comparison with those in control group.

Compound | Inhibitory effect (%), Intravenous administration (10 mg/kg) | Inhibitory effect (%), Oral administration (100 mg/kg) | inhibition in vivo at 10 mg/kg
4-oxo-4H-pyrimido[1,2-c]quinazoline-3-carboxylic acid [Example 27] | 100% | – | –
4-oxo-10-(2-ethylbutyramido)-4H-pyrimido[1,2-C]quinazoline-3-carboxylic acid [Test compound No. 64] | 39.8% | – | –
4-oxo-10-(2-methylpropionamido)-4H-pyrimido[1,2-C]quinazoline-3-carboxylicacid [Test compound No. 63] | 100% | – | –
4-oxo-10-(3-cyclopentylpropionamido)-4H-pyrimido[1,2-C]quinazoline-3-carboxylic acid [Example 53] | 85.0% | – | –
4-oxo-10-cyclohexanecarboxamido-4H-pyrimido[1,2-C]quinazoline-3-carboxylicacid [Example 52] | 100% | – | –
4-oxo-10-pivalamido-4H-pyrimido[1,2-c]quinazoline-3-carboxyic acid [Test compound No. 60] | – | 75.8% | –
4H-pyrimido[1,2-c]quinazoline-4-one [Example 26] | 100% | – | –
CCOC(=O)C(=CNc1ncnc2ccc(NC(=O)C(C)C)cc12)C(=O)OCC [Example 16, diethyl [(6-isobutyramido-4-quinazolinylamino)methylene]propanedioate] | – | 51.6% | 100%
CCOC(=O)C(=CNc1ncnc2ccccc12)C(=O)OCC [Test compound No. 1, diethyl[(4-quinazolinylamino)methylene]propanedioate] | – | – | 100%
CCOC(=O)C(=CNc1ncnc2ccc(CC)cc12)C(=O)OCC [Test compound No. 3, diethyl [(6-ethyl-4-quinazolinylamino)methylene]propanedioate] | – | – | 100%
CCOC(=O)C(=CNc1ncnc2ccc(C)cc12)C(=O)OCC [compound 2] | – | – | 100%
CCCc1ccc2ncnc(NC=C(C(=O)OCC)C(=O)OCC)c2c1 [compound 4] | – | – | 85.9%
CCOC(=O)C(=CNc1ncnc2ccc(N(C)C)cc12)C(=O)OCC [compound 11] | – | – | 100%
CCOC(=O)C(=CNc1ncnc2ccc(N3CCN(C)CC3)cc12)C(=O)OCC [compound 12] | – | – | 51.2%
CCOC(=O)C(=CNc1ncnc2ccc(NC(C)=O)cc12)C(=O)OCC [compound 13] | – | – | 100%
CCOC(=O)C(=CNc1ncnc2ccc(NC(=O)CC)cc12)C(=O)OCC [compound 14] | – | 77.4% | –
CCOC(=O)C(=O)Nc1ccc2ncnc(NC=C(C(=O)OCC)C(=O)OCC)c2c1 [compound 17] | – | – | 100%
CCOC(=O)C(=CNc1nc(OC)nc2ccccc12)C(=O)OCC [compound 20] | – | – | 37.6%
CCOC(=O)C(=CNc1nc(=O)n(C)c2ccccc12)C(=O)OCC [compound 22] | – | – | 100%
CCOC(=O)c1cnc2c3ccccc3ncn2c1=O [compound 23] | – | – | 100%
CCOC(=O)c1cnc2c3cc(N4CCN(C)CC4)ccc3ncn2c1=O [compound 34] | – | – | 100%

Compound | Inhibitory effect (%), Intravenous administration (10 mg/kg) | Inhibitory effect (%), Oral administration (100 mg/kg) | inhibition in vivo at 10 mg/kg
Diethyl [(6-acetamido-4-quinazolinylamino)methylene]propanedioate [Test compound No. 13] | 100% | – | –
diethyl 4,9-dioxo-4H,9H-pyrimido[1,2-c]pyrimido[1,2-a]quinazoline-3,8-dicarboxylate [Example 25] | 100% | – | –
diethyl [(6-amino-4-quinazolinylamino)methylene]propanedioate [Example 15] | – | 58.1% | –
diethyl [(6-nitro-4-quinazolinylamino)methylene]propanedioate [Test compound No. 8] | 24.4% | – | –
diethyl [[6-(2-ethylbutyramido)-4-quinazolinylamino]methylene]propanedioate [Example 54] | 48.4% | – | –
diethyl [{6-(3,3-dimethylbutyramido)-4-quinazolinylamino}methylene]propanedioate [Example 29] | 100% | – | –
diethyl [{6-methanesulfonamido-4-quinazolinylamino}methylene]propanedioate [Example 31] | 64.9% | – | –
dimethyl [[6-(2,3-dimethylpentanamido)-4-quinazolinylamino]methylene]propanedioate [Example 57] | 100% | 100% | –
dimethyl [[6-cyclohexanecarboxamido-4-quinazolinylamino]methylene]propanedioate [Example 44] | 0% | 49.1% | –
dimethyl [{6-pivalamido-4-quinazolinylamino}methylene]propanedioate [Example 30] | 100% | – | –
ethyl 4-oxo-4H-pyrimido[1,2-c]quinazoline-3-carboxylate [Test compound No. 23] | 75.4% | – | –
ethyl 4-oxo-10-(2-ethylbutyramido)-4H-pyrimido[1,2-C]quinazoline-3-carboxylate [Example 55] | 91.0% | – | –
ethyl 4-oxo-10-(3,3-dimethylbutyramido)-4H-pyrimido[1,2-c]quinazoline-3-carboxylate [Test compound No. 61] | – | 74.2% | –
ethyl 4-oxo-10-(3-cyclopentylpropionamido)-4H-pyrimido[1,2-C]quinazoline-3-carboxylate [Example 56] | 100% | 24.2% | –
methyl 4-oxo-10-(2-ethylbutyramido)-4H-pyrimido[1,2-C]quinazoline-3-carboxylate [Example 46] | 76.3% | – | –
methyl 4-oxo-10-(2-methylpropionamido)-4H-pyrimido[1,2-C]quinazoline-3-carboxylate [Example 47] | 100% | – | –
methyl 4-oxo-10-(3,3-dimethylbutyramido)-4H-pyrimido[1,2-c]quinazoline-3-carboxylate [Example 38] | 100% | – | –
methyl 4-oxo-10-cyclohexanecarboxamido-4H-pyrimido[1,2-C]quinazoline-3-carboxylate [Example 48] | 100% | 57.5% | –
methyl 4-oxo-10-pivalamido-4H-pyrimido[1,2-c]quinazoline-3-carboxylate [Test compound No. 59] | – | 72.7% | –
tetraethyl 2,2-[2,4-quinazolinediylbis(iminomethylidyne)]bispropanedioate [Example 8] | 52.7% | – | –
